In brackets after ≈: the same amount, converted by molar mass. Like-named read-outs stand apart in the source and are kept apart here.
Key:
[1] = system: methicillin resistant Staphylococcus aureus (MRSA) Mu50; assay: MIC of antibiotics against MRSA Mu50 with or without spermine; format: cell-based; details: for MIC: Staphylococcus aureus, MRSA, read-out: MICs in the presence or absence of spermine (1 mM): No add; for MIC / MICs in the presence or absence of spermine (1 mM): No add: no spermine; for MICs in the presence or absence of spermine (1 mM): Spermine: with 1 mM spermine
[2] = system: MRSA Staphylococcus aureus 700699; assay: MIC of antibiotics against MRSA Staphylococcus aureus 700699 with or without spermine; format: cell-based; details: for MIC: Staphylococcus aureus, MRSA, read-out: MICs in the absence or presence of spermine: No add; for MICs in the absence or presence of spermine: Spermine (1 mM): with 1 mM spermine
[3] = system: Salmonella typhimurium LT2; assay: microbe, parasite or virus in culture; details: Salmonella enterica, read-out: MICs in the indicated concentrations (mM) of polyamines: No add;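 note: Two-fold agar or broth dilution in Mueller-Hinton broth, MIC taken as lowest drug concentration without visible turbidity, tested alone or combined with polyamines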
[4] = system: E. coli (K10, K12, C921-61); assay: MIC of antibiotics against E. coli strains with or without polyamines (FIG. 3); format: cell-based; details: E. coli K10, K12, C921-61 and S. typhimurium LT2
[5] = system: Salmonella typhimurium LT2; details: for MICs in the indicated concentrations (mM) of polyamines: Spermine (1 mM): with 1 mM spermine; for MICs in the indicated concentrations (mM) of polyamines: Spermidine (20 mM): with 20 mM spermidine;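 for all read-outs here: Two-fold agar or broth dilution in Mueller-Hinton broth, MIC taken as lowest drug concentration without visible turbidity, tested alone or combined with polyamines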
P. aeruginosa PAO1 = assay: MIC of antibiotics against P. aeruginosa PAO1 with or without polyamines; format: cell-based

Cc1onc(-c2ccccc2Cl)c1C(=O)N[C@@H]1C(=O)N2[C@@H]1SC(C)(C)[C@@H]2C(=O)O [Cloxacillin]
MIC [1]: ≥ 256 µg/mL
MICs in the presence or absence of spermine (1 mM): Spermine [1]: 1 µg/mL
MIC ([2]; no spermine): > 256 µg/mL
MICs in the absence or presence of spermine: Spermine (1 mM) [2]: 2 µg/mL

CC1(C)S[C@@H]2[C@H](NC(=O)[C@H](N)c3ccccc3)C(=O)N2[C@H]1C(=O)O [Ampicillin]
MIC [1]: ≥ 32 µg/mL
MICs in the presence or absence of spermine (1 mM): Spermine [1]: 2 µg/mL
MIC [3]: 16 µg/mL (≈ 45.8 µM)
MIC ([2]; no spermine): ≥ 32 µg/mL
MICs in the absence or presence of spermine: Spermine (1 mM) [2]: 2 µg/mL
susceptibility with the combination of polyamines and antibiotics [4]: improved susceptibility

CC1(C)S[C@@H]2[C@H](NC(=O)Cc3ccccc3)C(=O)N2[C@H]1C(=O)O [Penicillin G]
MICs in the presence or absence of spermine (1 mM): No add [1]: 16 µg/mL
MICs in the presence or absence of spermine (1 mM): Spermine [1]: 0.25 µg/mL
MICs in the indicated concentrations (mM) of polyamines: No add ([5]; no polyamine): 16 µg/mL
MICs in the indicated concentrations (mM) of polyamines: Spermine (1 mM) [5]: 2 µg/mL
MICs in the indicated concentrations (mM) of polyamines: Spermidine (20 mM) [5]: 2 µg/mL
MICs in the absence or presence of spermine: No add ([2]; no spermine): 16 µg/mL
MICs in the absence or presence of spermine: Spermine (1 mM) [2]: 0.25 µg/mL
susceptibility with the combination of polyamines and antibiotics [4]: improved susceptibility

NCCCCN [Putrescine]
MICs to carbenicillin in the indicated concentration of polyamines (P. aeruginosa PAO1; 0 mM polyamine): 64 µg/mL
MICs to carbenicillin in the indicated concentration of polyamines (P. aeruginosa PAO1; 0.5 mM polyamine): 64 µg/mL
MICs to carbenicillin in the indicated concentration of polyamines (P. aeruginosa PAO1; 1 mM polyamine): 32 µg/mL
MICs to carbenicillin in the indicated concentration of polyamines (P. aeruginosa PAO1; 5 mM polyamine): 32 µg/mL
MICs to carbenicillin in the indicated concentration of polyamines (P. aeruginosa PAO1; 10 mM polyamine): 32 µg/mL
MICs to carbenicillin in the indicated concentration of polyamines (P. aeruginosa PAO1; 20 mM polyamine): 16 µg/mL

CN[C@H](CC(C)C)C(=O)N[C@H]1C(=O)N[C@@H](CC(N)=O)C(=O)N[C@H]2C(=O)N[C@H]3C(=O)N[C@H](C(=O)N[C@H](C(=O)O)c4cc(O)cc(O)c4-c4cc3ccc4O)[C@H](O)c3ccc(c(Cl)c3)Oc3cc2cc(c3O[C@@H]2O[C@H](CO)[C@@H](O)[C@H](O)[C@H]2O[C@H]2C[C@](C)(N)[C@H](O)[C@H](C)O2)Oc2ccc(cc2Cl)[C@H]1O [Vancomycin]
MIC [2]: 4 µg/mL
MICs in the absence or presence of spermine: Spermine (1 mM) [2]: 4 µg/mL

CO[C@@]1(NC(=O)C(C(=O)O)c2ccc(O)cc2)C(=O)N2C(C(=O)O)=C(CSc3nnnn3C)CO[C@@H]21 (stereo partly shown) [Moxalactam]
MIC ([2]; no spermine): > 512 µg/mL
MICs in the absence or presence of spermine: Spermine (1 mM) [2]: >32 µg/mL

CO/N=C(\C(=O)N[C@@H]1C(=O)N2C(C(=O)O)=C(CSc3nc(=O)c(=O)[nH]n3C)CS[C@H]12)c1csc(N)n1 [Ceftriaxone]
MIC [1]: > 512 µg/mL
MICs in the presence or absence of spermine (1 mM): Spermine [1]: 16 µg/mL
MIC ([2]; no spermine): > 512 µg/mL
MICs in the absence or presence of spermine: Spermine (1 mM) [2]: 16 µg/mL

CO/N=C(\C(=O)N[C@@H]1C(=O)N2C(C(=O)O)=C(COC(C)=O)CS[C@H]12)c1csc(N)n1 [Cefotaxime]
MIC [1]: 128 µg/mL
MICs in the presence or absence of spermine (1 mM): Spermine [1]: 1 µg/mL
MIC ([2]; no spermine): 128 µg/mL
MICs in the absence or presence of spermine: Spermine (1 mM) [2]: 1 µg/mL

CC(=O)OCC1=C(C(=O)O)N2C(=O)[C@@H](NC(=O)Cc3cccs3)[C@H]2SC1 [Cephalothin]
MIC [1]: 32 µg/mL
MICs in the presence or absence of spermine (1 mM): Spermine [1]: 4 µg/mL
MIC ([2]; no spermine): 32 µg/mL
MICs in the absence or presence of spermine: Spermine (1 mM) [2]: 4 µg/mL

CCN1CCN(C(=O)N[C@@H](C(=O)N[C@@H]2C(=O)N3C(C(=O)O)=C(CSc4nnnn4C)CS[C@H]23)c2ccc(O)cc2)C(=O)C1=O [Cefoperazone]
MIC [1]: > 512 µg/mL
MICs in the presence or absence of spermine (1 mM): Spermine [1]: 16 µg/mL
MIC ([2]; no spermine): > 512 µg/mL
MICs in the absence or presence of spermine: Spermine (1 mM) [2]: >4 µg/mL

CCn1cc(C(=O)O)c(=O)c2cc(F)c(N3CCNCC3)cc21 [Norfioxacin]
MICs in the presence or absence of spermine (1 mM): No add [1]: 128 µg/mL
MICs in the presence or absence of spermine (1 mM): Spermine [1]: 64 µg/mL

CC(C)(O/N=C(\C(=O)N[C@@H]1C(=O)N2C(C(=O)[O-])=C(C[n+]3ccccc3)CS[C@H]12)c1csc(N)n1)C(=O)O [Ceftazidime]
MIC [1]: 256 µg/mL
MICs in the presence or absence of spermine (1 mM): Spermine [1]: 4 µg/mL
MIC ([2]; no spermine): 256 µg/mL
MICs in the absence or presence of spermine: Spermine (1 mM) [2]: 4 µg/mL

CC(=O)OCC1=C(C(=O)O)N2C(=O)[C@@H](NC(=O)CCC[C@@H](N)C(=O)O)[C@H]2SC1 [Cephalosporin C]
MICs in the absence or presence of spermine: No add ([2]; no spermine): >512 µg/mL
MICs in the absence or presence of spermine: Spermine (1 mM) [2]: >128 µg/mL

NCCCCCN [Cadaverine]
MICs to carbenicillin in the indicated concentration of polyamines (P. aeruginosa PAO1; 0 mM polyamine): 64 µg/mL
MICs to carbenicillin in the indicated concentration of polyamines (P. aeruginosa PAO1; 0.5 mM polyamine): 64 µg/mL
MICs to carbenicillin in the indicated concentration of polyamines (P. aeruginosa PAO1; 1 mM polyamine): 32 µg/mL
MICs to carbenicillin in the indicated concentration of polyamines (P. aeruginosa PAO1; 5 mM polyamine): 32 µg/mL
MICs to carbenicillin in the indicated concentration of polyamines (P. aeruginosa PAO1; 10 mM polyamine): 32 µg/mL
MICs to carbenicillin in the indicated concentration of polyamines (P. aeruginosa PAO1; 20 mM polyamine): 16 µg/mL

Gentamicin
MICs in the absence or presence of spermine: No add ([2]; no spermine): 256 µg/mL
MICs in the absence or presence of spermine: Spermine (1 mM) [2]: 256 µg/mL

NC[C@H]1O[C@H](O[C@H]2[C@H](O)[C@@H](O[C@H]3O[C@H](CO)[C@@H](O)[C@H](N)[C@H]3O)[C@H](N)C[C@@H]2N)[C@H](O)[C@@H](O)[C@@H]1O [Kanamycin]
MICs in the indicated concentrations (mM) of polyamines: Spermine (1 mM) [5]: 2 µg/mL
MICs in the indicated concentrations (mM) of polyamines: Spermidine (20 mM) [5]: 4 µg/mL
MIC [3]: 4 µg/mL (≈ 8.26 µM)
MIC ([2]; no spermine): > 16 µg/mL
MICs in the absence or presence of spermine: Spermine (1 mM) [2]: >16 µg/mL

CC1(C)S[C@@H]2[C@H](NC(=O)[C@H](N)c3ccc(O)cc3)C(=O)N2[C@H]1C(=O)O [Amoxicillin]
MIC [1]: 16 µg/mL
MICs in the presence or absence of spermine (1 mM): Spermine [1]: 0.5 µg/mL
MIC ([2]; no spermine): 16 µg/mL
MICs in the absence or presence of spermine: Spermine (1 mM) [2]: 0.5 µg/mL

C[C@H]1[C@H](NC(=O)/C(=N\OC(C)(C)C(=O)O)c2csc(N)n2)C(=O)N1S(=O)(=O)O [Aztreonam]
MIC ([2]; no spermine): > 1020 µg/mL
MICs in the absence or presence of spermine: Spermine (1 mM) [2]: >256 µg/mL

O=C(Cc1cccs1)N[C@@H]1C(=O)N2C(C(=O)[O-])=C(C[n+]3ccccc3)CS[C@H]12 [Cephaloridine]
MIC [1]: 16 µg/mL
MICs in the presence or absence of spermine (1 mM): Spermine [1]: 0.25 µg/mL
MIC ([2]; no spermine): 16 µg/mL
MICs in the absence or presence of spermine: Spermine (1 mM) [2]: 0.25 µg/mL

CN(C)[C@@H]1C(O)=C(C(N)=O)C(=O)[C@@]2(O)C(O)=C3C(=O)c4c(O)cccc4[C@@](C)(O)[C@H]3C[C@@H]12 [Tetracycline]
MIC [1]: 32 µg/mL
MICs in the presence or absence of spermine (1 mM): Spermine [1]: 8 µg/mL
MICs in the indicated concentrations (mM) of polyamines: Spermine (1 mM) [5]: 2 µg/mL
MICs in the indicated concentrations (mM) of polyamines: Spermidine (20 mM) [5]: 2 µg/mL
MIC [3]: 2 µg/mL (≈ 4.5 µM)
MIC ([2]; no spermine): 32 µg/mL
MICs in the absence or presence of spermine: Spermine (1 mM) [2]: 4 µg/mL

From US20060270648A1, “USE OF POLYAMINES WITH ANTIBIOTICS” (priority 2005, published 2006)
